Reference: patent US6432948B1, “USE OF 7-(2-OXA-5,8-DIAZABICYLCO[4.3.0]NON-8-YL)-QUINOLONE CARBOXYLIC ACID AND NAPHTHYRIDON CARBOXYLIC ACID DERIVATIVES FOR THE TREATMENT OF HELIOBACTER PYLORI INFECTIONS AND ASSOCIATED GASTRODUODENAL DISEASES” (Bayer Aktiengesellschaft, priority 1996, dated 2002)
Values after ≈ are worked out from the molar mass of the structure shown. Like-named read-outs stand apart in the source and are kept apart here.

What was measured:
[1] = test system: H. pylori clinical isolate 008; assay: MIC, agar dilution test; format: cell-based; conditions: Helicobacter pylori, Columbia agar or Basis 2 agar with 10% lysed horse blood, 37° C., 48-72 hours, read-out: MIC (mg/l) H. pylori 008
Protocol: For inoculation, fresh Helicobacter cultures from liquid culture or suspension of the bacteria from agar plates were used. The inoculated agar plates were incubated at 37° C. in an atmosphere containing 5-10% of CO2 for 48-72 hours.

H. pylori NCTC 1163 7 = assay: MIC, agar dilution test; format: cell-based; conditions: Helicobacter pylori
Protocol: . The test substances were tested in replica dishes, which contained falling concentrations of the active compound at in each case doubled dilution. For inoculation, fresh Helicobacter cultures from liquid culture or suspension of the bacteria from agar plates were used. The inoculated agar plates were incubated at 37° C. in an atmosphere containing 5-10% of CO2 for 48-72 hours. The MIC value (mg/l) which was read off indicates the lowest active compound concentration at which no growth was to be detected using the naked eye. The following Helicobacter isolates were used: H. felis ATCC 49179, H. pylori NCTC 1163 7, H. pylori clinical isolate 008.

H. felis ATCC 49179 = conditions: for Eradication of H. felis in the mouse model, monotherapy: therapeutically used doses; for Clearance % / Clearance (animals cleared / animals per group): infected mice, 2 × 10 mg/kg, 70 day treatment as printed in table title (7 days elsewhere in the source), 5 animals per group
Protocol: The bacteria are administered by stomach tube as a suspension (0.1 ml containing 10^8-10^9 bacteria) 4 times in the course of 7 days. Alternatively to this, stomach homogenates of previously infected mice were used for infection.
3-5 days after establishment of the infection, the treatment with test preparations was begun. […] In some cases, the bacterial eradication was also determined 2-4 weeks after the end of treatment. Following the “CLO” test used in clinical diagnosis, a urease test on a microtitre basis was employed. Defined stomach biopsy samples were tested for colour change within 24 hours.

[2] = NCTC1163, agar dilution test, Columbia agar or Basis 2 agar with 10% lysed horse blood, 37° C., 48-72 hours, read-out: MIC (mg/l) H. pylori 11637

COc1c(N2C[C@@H]3NCCO[C@H]3C2)c(F)cc2c(=O)c(C(=O)O)cn(C3CC3)c12.Cl [Example 13]
MIC [1]: 0.125 mg/L | MIC (H. pylori NCTC 1163 7; [2]): 0.06 mg/L

O=C(O)c1cn([C@@H]2C[C@H]2F)c2c(Cl)c(N3C[C@@H]4NCCO[C@@H]4C3)c(F)cc2c1=O (mixture of isomers) [Example 20, 8-Chloro-6-fluoro-1-(trans-2-fluorocyclopropyl)-1,4-dihydro-7-((1R,6S)-2-oxa-5,8-diazabicyclo[4.3.0]non-8-yl)-4-oxo-3-quinolinecarboxylic acid]
melting point: 160 to 164 °C (dec.)

O=C(O)c1cn(C2CC2)c2c(Cl)c(N3C[C@@H]4CCCN[C@@H]4C3)c(F)cc2c1=O [BAY Y 3118, 8-chloro-1-cyclopropyl-7-([S,S]-2,8-diazabicyclo[4.3.0]non-8-yl)-6-fluoro-1,4-dihydro-4-oxo-3-quinolinecarboxylic acid, reference compound]
Death of animals on account of toxicity at eradicating treatment (H. felis ATCC 49179; mouse model, monotherapeutic treatment): a large part of the animals not dying on account of the toxicity of the compound | Eradication of H. felis in the mouse model, monotherapy (H. felis ATCC 49179; monotherapeutic treatment): no eradication of H. felis can be achieved

CC(CF)(CF)n1cc(C(=O)O)c(=O)c2cc(F)c(N3C[C@@H]4NCCO[C@@H]4C3)cc21 [Example 4, 1-(1-Fluoromethyl-1-methyl-2-fluoroethyl)-6-fluoro-7-[(1R,6S)-2-oxa-5,8-diazabicyclo[4.3.0]non-8-yl]-1,4-dihydro-4-oxo-3-quinolinecarboxylic acid]
MIC [1]: 0.25 mg/L (≈ 0.588 µM) | MIC (H. pylori NCTC 1163 7; [2]): 0.06 mg/L (≈ 0.141 µM)

O=C(O)c1cn(C2CC2)c2cc(N3CCNCC3)c(F)cc2c1=O [Ciprofloxacin, ciprofloxacin, reference compound]
MIC (H. pylori NCTC 1163 7; NCTC1163, read-out: MIC (mg/l) H. pylori 11637): 0.125 mg/L (≈ 0.377 µM) | Eradication of H. felis in the mouse model, monotherapy (H. felis ATCC 49179; monotherapeutic treatment): not able to lead to an eradication

O=C(O)c1cn([C@@H]2C[C@@H]2F)c2cc(N3C[C@@H]4NCCO[C@@H]4C3)c(F)cc2c1=O (mixture of isomers) [Example 15, 6-Fluoro-1-(cis-2-fluorocyclopropyl)-1,4-dihydro-7-((1R,6S)-2-oxa-5,8-diazabicyclo[4.3.0]non-8-yl)-4-oxo-3-quinolinecarboxylic acid]
melting point: 236 to 238 °C (dec.)

O=C(O)c1cn([C@@H]2C[C@H]2F)c2cc(N3C[C@@H]4NCCO[C@@H]4C3)c(F)cc2c1=O (mixture of isomers) [Example 19, 6-Fluoro-1-(trans-2-fluorocyclopropyl)-1,4-dihydro-7-((1 R,6S)-2-oxa-5,8-diazabicyclo[4.3.0]non-8-yl)-4-oxo-3-quinolinecarboxylic acid]
melting point: 270 to 274 °C (dec.)

COc1c(N2C[C@@H]3NCCO[C@@H]3C2)c(F)cc2c(=O)c(C(=O)O)cn(C3CC3)c12.Cl [Example 6, 1-Cyclopropyl-6-fluoro-8-methoxy-7-[(1R,6S)-2-oxa-5,8-diazabicyclo[4.3.0]non-8-yl]-1,4-dihydro-4-oxo-3-quinolinecarboxylic acid hydrochloride]
MIC [1]: 0.06 mg/L | MIC (H. pylori NCTC 1163 7; [2]): 0.06 mg/L

O=C(O)c1cn(C2CC2)c2c(OC(F)F)c(N3CC4NCCOC4C3)c(F)cc2c1=O [Example 8, 1-Cyclopropyl-8-difluoromethoxy-6-fluoro-1,4-dihydro-7-((1S,6S)-2-oxa-5 8-diazabicyclo[4.3.0]non-8-yl)-4-oxo-3-quinolinecarboxylic acid]
MIC [1]: 0.06 mg/L (≈ 0.137 µM) | MIC (H. pylori NCTC 1163 7; [2]): 0.06 mg/L (≈ 0.137 µM)

Cl.O=C(O)c1cn([C@@H]2C[C@@H]2F)c2c(F)c(N3C[C@@H]4NCCO[C@@H]4C3)c(F)cc2c1=O
melting point: 275 to 280 °C (dec.)

CCn1cc(C(=O)O)c(=O)c2cc(F)c(N3CCNC(C)C3)c(F)c21 (centres unmarked) [lomefloxacin, reference compound]
Eradication of H. felis in the mouse model, monotherapy (H. felis ATCC 49179; monotherapeutic treatment): not able to lead to an eradication

N#Cc1c(N2CC3NCCOC3C2)c(F)cc2c(=O)c(C(=O)O)cn(C3CC3)c12 (centres unmarked) [Example 1A]
MIC [1]: 0.06 mg/L (≈ 0.151 µM) | Eradication of the bacterium (H. felis ATCC 49179; 10-day treatment of the mice with 2×10 mg/kg): eradication of the bacterium | Clearance % (H. felis ATCC 49179): 100% | Clearance (animals cleared / animals per group) (H. felis ATCC 49179): 5/5

Cl.O=C(O)c1cn([C@@H]2C[C@@H]2F)c2c(Cl)c(N3C[C@@H]4NCCO[C@@H]4C3)c(F)cc2c1=O
melting point: 210 to 215 °C (dec.)

CN1COc2c(N3CC4NCCOC4C3)c(F)cc3c(=O)c(C(=O)O)cn1c23 [Example 2, 9-Fluoro-3-methyl-10-((1S,6S)-2-oxa-5,8-diazabicyclo[4.3.0]non-8-yl)-7-oxo-2,3-dihydro-7H-pyrido[1,2,3-d.e][1,3,4]benzoxadiazine-6-carboxylic acid]
MIC [1]: 0.06 mg/L (≈ 0.154 µM) | Clearance % (H. felis ATCC 49179): 100% | Clearance (animals cleared / animals per group) (H. felis ATCC 49179): 5/5

O=C(O)c1cn([C@@H]2C[C@H]2F)c2nc(N3C[C@@H]4NCCO[C@@H]4C3)c(F)cc2c1=O (mixture of isomers) [Example 21, 6-Fluoro-1-(trans-2-fluorocyclopropyl)-1,4-dihydro-7-((1R,6s)-2-oxa-5,8-diazabicyclo[4.3.0]non-8-yl)-4-oxo-1,8-naphthyridine-3-carboxylic acid]
melting point: 310 to 314 °C (dec.)
